Measurements as given in article PMC5590679 (Journal of medicinal chemistry, 2017).
Values after ≈ are worked out from the molar mass of the structure shown. Like-named read-outs stand apart in the source and are kept apart here.

Assays:
[1] = tested on: Mtb BioA underexpression strain (BioA-UE); assay: microbe, parasite or virus in culture; format: cell-based, Mycobacterium tuberculosis
[2] = tested on: Mtb H37Rv; assay: microbe, parasite or virus in culture; format: cell-based, Mycobacterium tuberculosis; details: for MIC50 WT+biotin: Mtb H37Rv with 1 μM supplemental biotin; for MIC: Mycobacterium tuberculosis, H37RV
[3] = tested on: Mtb H37Rv; details: cited from earlier work
[4] = MIC that results in 50% inhibition

CC(=O)c1ccc(N2CCN(C(=O)c3ccc4c(c3)OCO4)CC2)cc1 [Compound 6, 1-(4-(4-(Benzo[d][1,3]dioxole-5-carbonyl)piperazin-1-yl)phenyl)-ethanone]
MIC ([1]; Mycobacterium tuberculosis, read-out: MIC that results in 90% inhibition, BioA-UE): 1.7 µM (≈ 0.599 µg/mL) | MIC50 WT+biotin [2, 4]: >50 µM | MIC ([2]; read-out: MIC that results in 90% inhibition, WT+biotin): > 50 µM | MIC ([2]; read-out: MIC that results in 90% inhibition, WT-biotin): 23.4 µM (≈ 8.25 µg/mL) | activity against whole-cell Mtb in biotin-supplemented medium [3]: no observed activity

CC(=O)c1ccc(N2CCN(C(=O)c3ccc(Cl)c(Cl)c3)CC2)cc1 [Compound 9, 1-(4-(4-(3,4-Dichlorobenzoyl)piperazin-1-yl)phenyl)ethanone]
fold loss in potency against WT Mtb ([2]; biotin-free medium, relative to 6): 2 fold

CC(=O)c1cccc(N2CCN(C(=O)c3cccc(Cl)c3)CC2)c1 [Compound 30, 1-(3-(4-(3-Chlorobenzoyl)piperazin-1-yl)phenyl)ethanone]
fold loss in activity compared to para-acetyl 12 [2]: 10–50 fold

O=C1CCc2cc(N3CCN(C(=O)c4ccc5c(c4)OCO5)CC3)ccc21 [Compound 36, 5-(4-(Benzo[d][1,3]dioxole-5-carbonyl)piperazin-1-yl)-2,3-dihydro-1H-inden-1-one]
MIC ([2]; read-out: minimum inhibitory concentration (MIC) against WT Mtb): 1.7 µM (≈ 0.619 µg/mL)

CC(=O)c1ccc(-c2cn(Cc3cccc(Cl)c3)nn2)cc1 [Compound 37, 1-(4-(1-(3-Chlorobenzyl)-1H-1,2,3-triazol-4-yl)phenyl)ethanone]
antitubercular activity (in words) [2]: inactive

CC(=O)c1ccc(-c2cn(Cc3cccc(Cl)c3)nn2)s1 [Compound 38, 1-(5-(1-(3-Chlorobenzyl)-1H-1,2,3-triazol-4-yl)thiophen-2-yl)-ethanone]
antitubercular activity (in words) [2]: inactive

CC(=O)c1ccc(N2CCC(C(=O)c3ccc4c(c3)OCO4)CC2)cc1 [Compound 40, 1-(4-(4-(Benzo[d][1,3]dioxole-5-carbonyl)piperidin-1-yl)phenyl)-ethanone]
antitubercular activity (in words) [2]: completely inactive

(3-Chlorophenyl)(4-(5-methoxypyridin-2-yl)piperazin-1-yl)-methanone [Compound 22]
MIC50 BioA-UE ([1]; MIC that results in 50% inhibition, […]): 24.4 µM | MIC50 WT+biotin [2, 4]: >50 µM | MIC50 WT-biotin ([2]; MIC that results in 50% inhibition, Mtb H37Rv without supplemental biotin): 22.0 µM
